# Results taken from patent US10856562B2, “Flavor composition and edible compositions containing same” (MARS, INCORPORATED, priority 2013, dated 2020).
# “Also recorded” adds a separate entry of the source. Square brackets hold non-standard residues; d marks the D form. Ends that are not written are not given here. pGlu = O=C1CC[C@@H](C(=O)O)N1
# Key:
# panelists = test: Descriptive profile (Spectrum method) of peptide in 0.2% NaCl solution, in-mouth; assay type: in vivo, human; conditions: for Astringent, in-mouth perception / Bitter, in-mouth perception / Flinty/Mineral, in-mouth perception / Metallic, in-mouth perception / Numbing, in-mouth perception / Salt, in-mouth perception (mean salt perception in-mouth) / Sour, in-mouth perception / Sweet, in-mouth perception: mean score, 15-point scale
# Method: Descriptive Profiles (Flavor and Chemical Feeling Factors) of five use levels of a pGlu-Val-Leu flavor composition were determined using the Spectrum™ method. The five use levels were as follows: 0.1 ppb, 0.5 ppb, 1.0 ppb, 10.0 ppb and 40.0 ppb.
# Data was collected for the flavor and chemical feeling factors of the product in-mouth for each of the five use levels according to the following protocol. One replication was collected for the flavor and chemical feeling factors of the product in-mouth. 6-9 panelists evaluated per session.
# 2. Each panelist tasted a test sample (0.1 ppb, 0.5 ppb, 1.0 ppb, 10.0 ppb or 40.0 ppb all in 0.2% NaCl solution). Only one sample was tasted per session.
# Descriptive attributes (e.g., taste, flavor and chemical feeling factors) of six use levels of pGlu-Val-Leu (SE-13), pGlu-Val (SE-14) and pGlu-Val-Val (SE-17) flavor composition peptides were determined. The six use levels were as follows: 0.1 ppb, 0.5 ppb, 1.0 ppb, 10.0 ppb, 40.0 ppb and 50.0 ppb.
# Data was collected for the attributes of the product in-mouth for the use levels according to the following protocol: • The samples were analyzed for flavor and aftertaste by six-nine members of a panel, trained and experienced in appearance, flavor and texture evaluation using the Spectrum™ method. Samples in solution were evaluated across multiple panel sessions. • The strength of each attribute was rated on a 15-point scale, where 0=none and 15=very strong. • This scale incorporates the ability to use tenths of a point and therefore has the potential of 150 scale differentiations. • The scale may be expanded beyond 15 points to include extreme ratings if necessary.
# Attribute Perception Protocol • The panelists evaluated each sample using the following procedure • Descriptive Profiles (flavor and chemical feeling factors) of 5 levels of salt enhancing solutions • Individual data was collected for the flavor and chemical feeling factors of the product in-mouth • Increased Salt Perception Protocol • Each panelist tasted salt 5 reference (0.35% salt solution)—to ground themselves on salt intensity of 5.0. • Each panelist tasted the test sample (0.1 ppb, 0.5 ppb, 1.0 ppb, 10.0 ppb or 40.0/50.0 ppb all in 0.2% NaCl solution: only one per session) • Each panelist then re-tasted the salt 5 reference and rated it for salt intensity as well as any other basic taste, chemical feeling factor, or aromatic perceived. This captured any increased salt perception indicated by the test sample as well as any other perceptions present. • Return to Baseline Protocol • After evaluating the sample for salt & other perceptions, panelists re-tasted the salt 5 reference at 1 minute intervals until their perception of the salt 5 saltiness intensity had returned to 5.0. Each panelist recorded their salt intensity at each interval and took qualitative notes on other perceptions seen in aftertaste. Sample Preparation
# The 0.1, 0.5, 1.0 10, 40, and 50 ppb test samples of the flavor composition peptides were prepared in water as described in table 4.
# The panelists evaluated each sample for the attributes described in table 5.
# panel of trained tasters = test: Saltiness of sodium-reduced pasta sauce with peptides, panel of trained tasters; assay type: in vivo, human; conditions: 10 ppb of UE-30
# Method: Food product compositions were prepared by admixing flavor composition peptide(s) of the present application with food compositions, wherein the level of sodium (NaCl) in the food product compositions was reduced. The level of sodium was reduced by 25%, 50% or 75% compared to food products compositions that were not admixed with flavor composition peptides. The food product compositions comprising the flavor composition peptides were tasted by a panel of trained tasters and the level of saltiness was compared to the control food products.
# The peptides pGlu-Val-Leu (identified as “SE-13”), pGlu-Val-Cys (identified as “UE-30”) and pGlu-Val-Val (identified as “SE-17”) were tested in Pasta Sauce. The control pasta sauce comprised 540 mg sodium (NaCl) in a 125 g serving.
substance,measurement,setting,value
[pGlu]-Val [SE-14],"Astringent, in-mouth perception",panelists; 0.1 ppb in 0.2% NaCl,0.0
same,"Bitter, in-mouth perception",panelists; 0.1 ppb in 0.2% NaCl,0.0
same,"Flinty/Mineral, in-mouth perception",panelists; 0.1 ppb in 0.2% NaCl,0.8
same,"Metallic, in-mouth perception",panelists; 0.1 ppb in 0.2% NaCl,0.3
same,"Numbing, in-mouth perception",panelists; 0.1 ppb in 0.2% NaCl,0.0
same,"Salt, in-mouth perception (mean salt perception in-mouth)",panelists; 0.1 ppb in 0.2% NaCl,1.8
same,"Sour, in-mouth perception",panelists; 0.1 ppb in 0.2% NaCl,0.0
same,"Sweet, in-mouth perception",panelists; 0.1 ppb in 0.2% NaCl,0.0
same,"Level of the aromatics, basic tastes and chemical feeling factors in-mouth with increasing concentration",panelists; 0.1 to 40.0/50.0 ppb,does not increase
same,Salt perception in-mouth as the concentration increases,panelists; 0.1 to 40.0/50.0 ppb in 0.2% NaCl,increases slightly; also recorded: slight increase
same,"Astringent, in-mouth perception",panelists; 0.5 ppb in 0.2% NaCl,0.1
same,"Bitter, in-mouth perception",panelists; 0.5 ppb in 0.2% NaCl,0.0
same,"Flinty/Mineral, in-mouth perception",panelists; 0.5 ppb in 0.2% NaCl,0.6
same,"Metallic, in-mouth perception",panelists; 0.5 ppb in 0.2% NaCl,0.1
same,"Numbing, in-mouth perception",panelists; 0.5 ppb in 0.2% NaCl,0.0
same,"Salt, in-mouth perception (mean salt perception in-mouth)",panelists; 0.5 ppb in 0.2% NaCl,2.5
same,"Sour, in-mouth perception",panelists; 0.5 ppb in 0.2% NaCl,0.0
same,"Sweet, in-mouth perception",panelists; 0.5 ppb in 0.2% NaCl,0.0
same,"Astringent, in-mouth perception",panelists; 1.0 ppb in 0.2% NaCl,0.1
same,"Bitter, in-mouth perception",panelists; 1.0 ppb in 0.2% NaCl,0.0
same,"Flinty/Mineral, in-mouth perception",panelists; 1.0 ppb in 0.2% NaCl,0.9
same,"Metallic, in-mouth perception",panelists; 1.0 ppb in 0.2% NaCl,0.1
same,"Numbing, in-mouth perception",panelists; 1.0 ppb in 0.2% NaCl,0.0
same,"Salt, in-mouth perception (mean salt perception in-mouth)",panelists; 1.0 ppb in 0.2% NaCl,2.9
same,"Sour, in-mouth perception",panelists; 1.0 ppb in 0.2% NaCl,0.0
same,"Sweet, in-mouth perception",panelists; 1.0 ppb in 0.2% NaCl,0.0
same,"Astringent, in-mouth perception",panelists; 10.0 ppb in 0.2% NaCl,0.0
same,"Bitter, in-mouth perception",panelists; 10.0 ppb in 0.2% NaCl,0.0
same,"Flinty/Mineral, in-mouth perception",panelists; 10.0 ppb in 0.2% NaCl,0.9
same,"Metallic, in-mouth perception",panelists; 10.0 ppb in 0.2% NaCl,0.3
same,"Numbing, in-mouth perception",panelists; 10.0 ppb in 0.2% NaCl,0.0
same,"Salt, in-mouth perception (mean salt perception in-mouth)",panelists; 10.0 ppb in 0.2% NaCl,3.3
same,"Sour, in-mouth perception",panelists; 10.0 ppb in 0.2% NaCl,0.0
same,"Sweet, in-mouth perception",panelists; 10.0 ppb in 0.2% NaCl,0.0
same,"Astringent, in-mouth perception",panelists; 50.0 ppb in 0.2% NaCl,0.0
same,"Bitter, in-mouth perception",panelists; 50.0 ppb in 0.2% NaCl,0.0
same,"Flinty/Mineral, in-mouth perception",panelists; 50.0 ppb in 0.2% NaCl,0.7
same,"Metallic, in-mouth perception",panelists; 50.0 ppb in 0.2% NaCl,0.2
same,"Numbing, in-mouth perception",panelists; 50.0 ppb in 0.2% NaCl,0.0
same,"Salt, in-mouth perception (mean salt perception in-mouth)",panelists; 50.0 ppb in 0.2% NaCl,3.2
same,"Sour, in-mouth perception",panelists; 50.0 ppb in 0.2% NaCl,0.0
same,"Sweet, in-mouth perception",panelists; 50.0 ppb in 0.2% NaCl,0.0
same,"Umami like swelling of lips and tongue, in-mouth",panelists; all levels,Some panelists also experience Umami like swelling of lips and tongue
same,Umami like feeling factor of lip and tongue swelling,panelists; both in-mouth and after expectoration,Shows umami like feeling factor of lip and tongue swelling
[pGlu]-Val-Cys [UE-30],Off-taste,panel of trained tasters,had a metallic taste
